# From patent US9873880B2, “Engineering microorganisms” (DSM NUTRITIONAL PRODUCTS AG, priority 2013, dated 2018)
# Key:
# [1] = system: transformed strains bearing the zeocin-resistance gene (from S. hidustanus) expression cassette; test: Zeocin sensitivity of transformed strains, spotted colonies; format: cell-based, Thraustochytrium sp. ONC-T18; details: 18 g/L sea salt
# Method: (§1) A very small amount of inoculum of zeocin-resistant strains that had been transferred three times via colony passages on zeocin/ONC-T18-GM0 agar plates (as well as their parental strain or the wild type strain) was picked from colonies using a 10 μL pipette tip and re-suspended in 50 μL sterilized water in a 200 μL PCR tube. One μL of the cell suspension was spotted on ONC-T18-GM0 agar plates containing 18 g/L sea salt (15 g/L agar) and zeocin at a concentration ranging from 0 to 5000 μg/mL (Invitrogen, CA, USA). The diameters of the spotted colonies were measured on day 1, day 3, day 5, day 7, and day 8.
# [2] = system: wild type strain of ONC-T18; test: Zeocin as mutagenic agent on ONC-T18 agar plates; format: cell-based, Thraustochytrium sp. ONC-T18
# Method: The marine protist wild type strain of ONC-T18 was chosen as a model system to test if zeocin would be effective to induce mutagenesis in this strain. One full loop of the inocula of ONC-T18, growing in the agar plates containing ONC-T18-GM0 medium [5 g/L yeast extract, 5 g/L peptone, 10 g/L D(+)-glucose. 35 g/L artificial sea salt, 1.25 mg/L trace elements (5 g/L NaH2PO4.H2O, 3.15 g/L FeCl3.6H2O, 4.36 g/L Na2EDTA.2H2O, 0.6125 mg/L CuSO4.5H2O, 0.0597 g/L Na2MoO4.2H2O, 0.022 g/L ZnSO4.7H2O, 0.01 g/L CoCl2.6H2O, 0.18 g/L MnCl2.4H2O, 13 μg/L […], 2.7 mg/L NiSO4.6H2O, 1.84 mg/L Na3VO4 and 1.94 mg/L […]). 1.25 mg/L vitamins (1 mg/L vitamin B12, 1 mg/L biotin, 0.20 g/L thiamine HCl) and 20 g agar per liter], was inoculated into 50 mL liquid ONC-T18-GM0 medium, and incubated in a shaker incubator at 25° C. at 250 rpm for 36 hours. Half a milliliter of culture was transferred into a 1.5 mL tube and vortexed at full speed for 30 seconds, and then diluted in 50 mL sterilized water. One hundred microliters of the diluted inocula were respectively spread on the agar plates containing zeocin at various concentrations (0, 10, 30, 50, and 100 μg/mL). Plates were incubated at 25° C. incubator. The emergence and development of the colonies were observed daily. […] Under these conditions, zeocin was effective within the range of at least 10-200 μg/mL; higher concentrations may well also be effective. For example, concentrations in the range of 200-500 μg/mL or higher could work. […] Under the particular conditions utilized in the present Example, zeocin worked best at 50 μg/mL.
# [3] = system: Thraustochytrium sp. ONC-T18; test: Effects of zeocin and salinity on colony numbers and colony diameters of ONC-T18; format: cell-based; details: for colony numbers: 10 days; for colony numbers / colony growth rates (diameter in mm): mean of two plates
# Method: One hundred μL of ONC-T18 cell suspension diluted at 1:500 from a 2-day culture were spread onto ONC-T18-GM0 plates containing various concentrations of antibiotic zeocin and sea salt. Inoculated plates were incubated in a 25° C. incubator for 10 days. The numbers of the colonies on each plate were counted. […] In plates containing 8.5 g/L sea salt without zeocin, only one colony was observed. In plates containing 18 g/L sea salt without zeocin, colony numbers were similar to that of plates containing 35 g/L sea salt without zeocin. […] Therefore, for this work, 18 g/L sea salt was used to make ONC-T18-GM0 for selection of ONC-T18 transformants transformed with constructs bearing a zeocin-resistant gene expression cassette.
# [4] = system: Thraustochytrium sp. ONC-T18; test: Effects of antibiotics on the growth of ONC-T18 on ONC-T18-GM0 agar plates; format: cell-based
# Method: Thraustochytrium sp. ONC-T18 was grown on agar plates (20 g agar per liter ONC-T18-GM0). One loop of inoculum of ONC-T18 was inoculated into 50 mL of liquid ONC-T18-GM0, and the culture was incubated in a shaker incubator at 25° C. at 250 rpm for 36 hours. Half a milliliter of the culture was transferred into a 1.5 mL tube and vortexed at full speed for 30 seconds to break down cell clusters, then diluted in 50 mL sterilized water. One hundred microliters of the resulting solution was spread onto each ONC-T18-GM0 medium plate. Each plate contained one of various antibiotics at one of various concentrations. Plates were incubated at 25° C. and emergence and development of colonies were observed daily.
# [5] = cited from earlier work
# [6] = system: wild type strains ONC-T18; test: Transgene stability assay, growth on zeocin plates after six colony passages; format: cell-based, Thraustochytrium sp. ONC-T18; details: zeocin 200 μg/mL media
# Source text: Transgene stability is important for certain applications of genetic engineering in industrial microbial strain improvement programs where microorganisms are used in pharmaceutical or industrial processes, and where product quantity and quality are paramount. We therefore carried out transgene stability estimate assays of transformed ONC-T18 strains. As for the growth rate assays described in above, inocula of four strains of each transformation as well as their ancestor wild type strains were spotted on ONC-T18-GM0 agar plates in the absence of zeocin and incubated at 25° C. for seven days. (Each transformation had been performed using one of the five different plasmid constructs, each of which bears various zeocin-resistant gene expression cassettes driven by a combination of different promoters and terminators). Then, using the same method, strains were transferred on a new fresh ONC-T18-GM0 agar plate and incubated at 25° C. for 7 days; colony passages were carried out 6 times. Finally, strains were transferred back onto ONC-T18-GM0 agar plates either without or with zeocin at a concentration of 200 μg/mL media.
# [7] = system: parental strain (the wild type strain) ONC-T18; test: Zeocin sensitivity of the parental (wild type) strain, spotted colonies; format: cell-based, Thraustochytrium sp. ONC-T18; details: ONC-T18-GM0 agar plates, 18 g/L sea salt, spotted cells
# Method: as §1
# [8] = agar plates, ONC-T18-GM0, 35 g/L artificial sea salt
compound,measurement,setting,value
"Cc1c(N)nc([C@H](CC(N)=O)NC[C@H](N)C(N)=O)nc1C(=O)N[C@H](C(=O)N[C@H](C)[C@@H](O)[C@H](C)C(=O)N[C@H](C(=O)NCCC1=N[C@@H](c2nc(C(=O)NCCCCN=C(N)N)cs2)CS1)[C@@H](C)O)[C@@H](O[C@@H]1O[C@@H](CO)[C@@H](O)[C@H](O)[C@@H]1O[C@H]1O[C@H](CO)[C@@H](O)[C@H](OC(N)=O)[C@@H]1O)c1cnc[nH]1 [Zeocin, zeocin]",growth of transformed strains,[1]; zeocin 5000 μg/mL,most strains grew remarkably slower
same,growth of transformed strains,[1]; zeocin 30 to 1000 μg/mL,grew well
same,concentration at which zeocin worked best as mutagen,[2]; [8],50 µg/mL
same,concentration range in which zeocin was effective as mutagen,[2]; [8],10 to 200 µg/mL
same,colonies seen per plate,"[2]; zeocin 50 μg/mL, six days post inoculation",Only a few of colonies
same,sensitivity of ONC-T18 cells to zeocin,[2]; zeocin 100 μg/mL,highly sensitive
same,zeocin concentration that completely inhibited growth of ONC-T18,[3]; ONC-T18-GM0 agar plates containing 18 g/L sea salt,30 µg/mL
same,zeocin concentration needed for complete inhibition of ONC-T18,[3]; ONC-T18-GM0 agar plates containing 35 g/L sea salt,100 µg/mL
same,colony numbers,"[3]; salt 5 g/L, zeocin 10 μg/mL",0
same,colony growth rates (diameter in mm),"[3]; salt 5 g/L, zeocin 10 μg/mL",0 mm
same,colony numbers,"[3]; salt 5 g/L, zeocin 30 μg/mL",0
same,colony growth rates (diameter in mm),"[3]; salt 5 g/L, zeocin 30 μg/mL",0 mm
same,colony numbers,"[3]; salt 5 g/L, zeocin 50 μg/mL",0
same,colony growth rates (diameter in mm),"[3]; salt 5 g/L, zeocin 50 μg/mL",0 mm
same,colony numbers,"[3]; salt 5 g/L, zeocin 100 μg/mL",0
same,colony growth rates (diameter in mm),"[3]; salt 5 g/L, zeocin 100 μg/mL",0 mm
same,colony numbers,"[3]; salt 8.5 g/L, zeocin 10 μg/mL",0
same,colony growth rates (diameter in mm),"[3]; salt 8.5 g/L, zeocin 10 μg/mL",0 mm
same,colony numbers,"[3]; salt 8.5 g/L, zeocin 30 μg/mL",0
same,colony growth rates (diameter in mm),"[3]; salt 8.5 g/L, zeocin 30 μg/mL",0 mm
same,colony numbers,"[3]; salt 8.5 g/L, zeocin 50 μg/mL",0
same,colony growth rates (diameter in mm),"[3]; salt 8.5 g/L, zeocin 50 μg/mL",0 mm
same,colony numbers,"[3]; salt 8.5 g/L, zeocin 100 μg/mL",0
same,colony growth rates (diameter in mm),"[3]; salt 8.5 g/L, zeocin 100 μg/mL",0 mm
same,colony numbers,"[3]; salt 18 g/L, zeocin 10 μg/mL",11
same,colony growth rates (diameter in mm),"[3]; salt 18 g/L, zeocin 10 μg/mL",4.1 mm
same,colony numbers,"[3]; salt 18 g/L, zeocin 30 μg/mL",0
same,colony growth rates (diameter in mm),"[3]; salt 18 g/L, zeocin 30 μg/mL",0 mm
same,colony numbers,"[3]; salt 18 g/L, zeocin 50 μg/mL",0
same,colony growth rates (diameter in mm),"[3]; salt 18 g/L, zeocin 50 μg/mL",0 mm
same,colony numbers,"[3]; salt 18 g/L, zeocin 100 μg/mL",0
same,colony growth rates (diameter in mm),"[3]; salt 18 g/L, zeocin 100 μg/mL",0 mm
same,colony numbers,"[3]; salt 35 g/L, zeocin 10 μg/mL",22.5
same,colony growth rates (diameter in mm),"[3]; salt 35 g/L, zeocin 10 μg/mL",4.1 mm
same,colony numbers,"[3]; salt 35 g/L, zeocin 30 μg/mL",11
same,colony growth rates (diameter in mm),"[3]; salt 35 g/L, zeocin 30 μg/mL",1.9 mm
same,colony numbers,"[3]; salt 35 g/L, zeocin 50 μg/mL",5
same,colony growth rates (diameter in mm),"[3]; salt 35 g/L, zeocin 50 μg/mL",0.6 mm
same,colony numbers,"[3]; salt 35 g/L, zeocin 100 μg/mL",0
same,colony growth rates (diameter in mm),"[3]; salt 35 g/L, zeocin 100 μg/mL",0 mm
same,effect on growth of ONC-T18 (in words),[4],significantly inhibited the growth
same,stability at high salt concentrations,[5]; Invitrogen,unstable
same,water solubility,[5]; InvivoGen,water soluble
same,growth of wild type strains,[6],none of the wild type strains were able to grow
same,zeocin concentration on which the wild type strain grew,[7],≤ 30 µg/mL
